Converted amounts (≈) assume the structure as drawn. “And” between values parts separate entries of the source, which are not always exact repeats. Equal entries are not always repeated.
Tests used:
[1] = test system: barnyard grass (Echinochloa crus-galli); experiment: Experiment 1: herbicidal effects against barnyard grass (pot test, emulsifiable concentrate); assay type: in vivo
[2] = test system: Hotarui (Scirpus juncoides); experiment: Experiment 2: herbicidal effects against Hotarui (pot test, granules); assay type: in vivo; conditions: 25 days
[3] = test system: Mizugayatsuri (Cyperus serotinus); experiment: Experiment 2: herbicidal effects against Mizugayatsuri (pot test, granules); assay type: in vivo; conditions: 25 days
[4] = Experiment 3: acute toxicity to fish; assay type: in vivo, Black-carp fry; conditions: carp, water; for LC50 at 48 h: read-out: Median lethal concentration TLm (48hrs); for LC50 at 96 h: read-out: Median lethal concentration TLm (96hrs)
Procedure: With respect to the compounds according to the present invention and the comparative compounds (Compound 10, Compound 12 and Compound 13), there were conducted tests on acute toxicity to carps.
In 25-liter water tanks made of glass was charged 20 liters of water. 12 Black-carp fry were released to each of the water tanks and bred while feeding for 7 days. Then, the whole quantity of water in each of the tanks was replaced with fresh water, and feeding to the carps was stopped. After three days, a prescribed amount of 1 weight % solution of a test compound in acetone was added to water in the water tank.
The number of survival fish in each tank was counted after 24 hours, 48 hours and 96 hours, successively.
The TLm (median tolerance limit=lethal concentration 50%) was determined by the Doudorff's method (Sewage & Ind. Wastes 23 (1951) 1380-1397).

carps = experiment: Experiment 4: subacute toxicity to fish; assay type: in vivo, 2-year-old carps
Procedure: (§1) With respect to the compounds according to the present invention and the comparative compounds listed in Table 4, there were conducted tests on subacute toxicity to 2-year-old carps having an average weight of 20 g.
(§2) Ten 2-year-old carps were released in each of 25-liter water tanks equipped with an air-blowing apparatus and acclimatized to the surroundings while feeding for 10 days. Water in each of the water tanks was continuously replaced with fresh water so that the residence time of water in the water tanks is 6 hours. Each test compound was added to a predetermined quantity of supply water to prepare a 0.2 ppm aqueous solution of each compound, and each of the aqueous solutions was continuously added to the water in the tank. After three weeks, the hematocrit values of all the survival carps were determined. The hematocrit value used herein is intended to mean a volume percentage of erythrocyte contained in the blood.

[5] = Experiment 4: subacute toxicity to fish; assay type: in vivo, 2-year-old carps; conditions: carp, water; 0.2 ppm; 3 weeks; read-out: Survival rate after 3 weeks
Procedure: as §1, §2

barnyard grass = experiment: Experiment 2: herbicidal effects against barnyard grass (pot test, granules); assay type: in vivo, Echinochloa crus-galli; conditions: 2.5 leaf-stage, 25 days
broad-leaf weeds = experiment: Experiment 2: herbicidal effects against broad-leaf weeds (pot test, granules); assay type: in vivo; conditions: 25 days
rice plants = experiment: Experiment 2: phytotoxicity to rice plants (pot test, granules); conditions: 25 days
[6] = 1.5 leaf-stage of barnyard grass, 150 g/10a., 25 days
[7] = 1.5 leaf-stage of barnyard grass, 300 g/10a., 25 days
[8] = 1.5 leaf-stage of barnyard grass, 600 g/10a., 25 days
[9] = 3 leaf-stage of barnyard grass, 150 g/10a., 25 days
[10] = 3 leaf-stage of barnyard grass, 300 g/10a., 25 days
[11] = 3 leaf-stage of barnyard grass, 600 g/10a., 25 days

SMILES	herbicidal activity (barnyard grass) [1, 6]	herbicidal activity (barnyard grass) [1, 7]	herbicidal activity (barnyard grass) [1, 8]	herbicidal activity (barnyard grass) [1, 9]	herbicidal activity (barnyard grass) [1, 10]	Herbicidal activity Hotarui (Scirpus juncoides) ([2]; 150 g/10a.)	Herbicidal activity Hotarui (Scirpus juncoides) ([2]; 300 g/10a.)	Herbicidal activity Hotarui (Scirpus juncoides) ([2]; 600 g/10a.)	Herbicidal activity Mizugayatsuri (Cyperus serotinus) ([3]; 150 g/10a.)	Herbicidal activity Mizugayatsuri (Cyperus serotinus) ([3]; 300 g/10a.)	Herbicidal activity Mizugayatsuri (Cyperus serotinus) ([3]; 600 g/10a.)	LC50 at 48 h [4] [µg/mL]	Average Hematocrit Value of survival fish (carps; 0.2 ppm, 3 weeks) [%]	survival at 504 h [5] [%]	herbicidal activity (barnyard grass) (barnyard grass; 150 g/10a.)	herbicidal activity (barnyard grass) (barnyard grass; 300 g/10a.)	herbicidal activity (barnyard grass) (barnyard grass; 600 g/10a.)	Herbicidal activity broad-leaf weeds (broad-leaf weeds; 150 g/10a.)	Herbicidal activity broad-leaf weeds (broad-leaf weeds; 300 g/10a.)	Herbicidal activity broad-leaf weeds (broad-leaf weeds; 600 g/10a.)	further results
CC1CCCCN1C(=O)SCCCCCl (stereo not drawn) [Compound 1, S-(4-chlorobutyl)-(2-methyl)-piperidine-1-carbothioate]	5 (more than 90%)	5 (more than 90%)	5 (more than 90%)	5 (more than 90%)	5 (more than 90%)	4 (70 to 89%)	5 (more than 90%)	5 (more than 90%)	4 (70 to 89%)	4 (70 to 89%)	5 (more than 90%)	11 (≈ 44 µM)	30	100	5 (more than 90%)	5 (more than 90%)	5 (more than 90%)	5 (more than 90%)	5 (more than 90%)	5 (more than 90%)	herbicidal activity (barnyard grass) [1, 11]: 5 (more than 90%); LC50 at 96 h [4]: 10 µg/mL (≈ 40 µM)
CC1CCC(C)CN(C(=O)SCCCCl)C1 (stereo not drawn) [Compound 6, S-(3-chloropropyl)-3,6-dimethyl-hexahydro-1H-azepine-1-carbothioate]	5 (more than 90%)	5 (more than 90%)	5 (more than 90%)	5 (more than 90%)	5 (more than 90%)	4 (70 to 89%)	5 (more than 90%)	5 (more than 90%)	3 (50 to 69%)	4 (70 to 89%)	5 (more than 90%)	4.4 (≈ 16.7 µM)	34	100	5 (more than 90%)	5 (more than 90%)	5 (more than 90%)	4 (70 to 89%)	5 (more than 90%)	5 (more than 90%)	herbicidal activity (barnyard grass) [1, 11]: 5 (more than 90%); LC50 at 96 h [4]: 3.7 µg/mL (≈ 14 µM)
CC1CCC(C)CN(C(=O)SCCCCCl)C1 (stereo not drawn) [Compound 7, S-(4-chlorobutyl)-3,6-dimethyl-hexahydro-1H-azepine-1-carbothioate]	5 (more than 90%)	5 (more than 90%)	5 (more than 90%)	5 (more than 90%)	5 (more than 90%)	3 (50 to 69%)	5 (more than 90%)	5 (more than 90%)	3 (50 to 69%)	4 (70 to 89%)	5 (more than 90%)	2.6 (≈ 9.36 µM)	34	100	5 (more than 90%)	5 (more than 90%)	5 (more than 90%)	4 (70 to 89%)	5 (more than 90%)	5 (more than 90%)	herbicidal activity (barnyard grass) [1, 11]: 5 (more than 90%); LC50 at 96 h [4]: 2.6 µg/mL (≈ 9.36 µM)
CCSC(=O)N1CCCCCC1 [Compound 13, S-ethyl-hexahydro-1H-azepine-1-carbothioate, reference compound]	–	–	–	–	–	0 (less than 10%)	1 (10 to 29%)	2 (30 to 49%)	0 (less than 10%)	1 (10 to 29%)	1 (10 to 29%)	34 (≈ 182 µM)	25	50	3 (50 to 69%)	4 (70 to 89%)	5 (more than 90%)	1 (10 to 29%)	2 (30 to 49%)	3 (50 to 69%)	herbicidal activity (barnyard grass) ([1]; in vivo): 5 (key: 5: more than 90%; 4: 70 to 89%; 3: 50 to 69%; 2: 30 to 49%; 10 to 29%; less than 10%) and 4 (key: 5: more than 90%; 4: 70 to 89%; 3: 50 to 69%; 2: 30 to 49%; 10 to 29%; less than 10%) and 3 (key: 5: more than 90%; 4: 70 to 89%; 3: 50 to 69%; 2: 30 to 49%; 10 to 29%; less than 10%); phytotoxicity rice plant (rice plants; 150 g/10a.): 0 (less than 10%); phytotoxicity rice plant (rice plants; 300 g/10a.): 0 (less than 10%); phytotoxicity rice plant (rice plants; 600 g/10a.): 2 (30 to 49%); subacute toxicity to carps (in words) (carps; 0.2 ppm, 3 weeks): high subacute toxicity to carps; survival of carps (in words) (carps; 0.2 ppm, 3 weeks): extremely low; symptoms of anemia in carps (in words) (carps; 0.2 ppm, 3 weeks): remarkable symptons of anemia; subacute anemia symptoms in fish (in words) (carps; general statement): subacute anemia symptoms in fish

Reference: patent publication US4400199A, “Thiolcarbamate compounds and their use as herbicides” (priority 1981, dated 1983)
